Laboratory results reported in US11155841B2, “Method for producing sphingoid base or sphingolipid” (AJINOMOTO CO., INC., priority 2015, dated 2021).

Assay: Phytosphingosine solubility with various cyclodextrins in aqueous solution
Format: physicochemical
Details: aqueous 2-hydroxypropyl-α-cyclodextrin solution, aqueous with cosolvent or surfactant or cyclodextrin, thermodynamic from solid; excess of pure phytosphingosine (20 g/l) incubated with 2-hydroxypropyl-α-cyclodextrin solution; quantified by LC-MS; read-out: Solubilized phytosphingosine in the supernatants
Method: Phytosphingosine amounts (mg/l) measured in supernatants after incubation of an excess of pure phytosphingosine (20 g/l) with each of the three types of cyclodextrin at various concentrations.
These experiments were conducted to determine if and to what extent cyclodextrins solubilized sphingoid bases. To that end, an excess of phytosphingosine was incubated with increasing concentrations of solutions of three different types of cyclodextrin species—α-cyclodextrin, 2-hydroxypropyl-α-cyclodextrin, 2-hydroxypropyl-β-cyclodextrin. Solubilized phytosphingosine in the supernatants were quantified by liquid chromatography-mass spectrometry (LC-MS) using standards prepared in the same cyclodextrin solutions.

CCCCCCCCCCCCCC[C@@H](O)[C@@H](O)[C@@H](N)CO [phytosphingosine]
solubility: > 9 mg/mL
